Results from US9360486B2, “Allergen fragments” (Biomay AG, priority 2007, dated 2016).

System: Amb a 1-specific T cell lines (TCL)
Assay: T cell epitope mapping of Amb a 1.3: proliferation (3H-thymidine uptake) of TCL stimulated with synthetic peptides
Format: cell-based, human
Settings: for No. positive patients SI > 3 / No. positive patients SI > 5 / % (positive patients SI > 3) / % (positive patients SI > 5): TCL from 48 ragweed pollen-allergic patients, peptide 5 μg/ml; for No. positive patients SI > 3 / No. positive patients SI > 5: 3H-thymidine uptake after 48 hrs; for No. positive patients SI > 3 / % (positive patients SI > 3): stimulation index > 3; for No. positive patients SI > 5 / % (positive patients SI > 5): stimulation index > 5; for T cell activating region recognized by % of patients: classes of prevalence referring to SI>5, 48 TCL
Description: The T cell response to Amb a 1 was characterized in detail using the established in vitro culture system (Jahn-Schmid et al., J. Immunol. 169: 6005-11, 2002; Jahn-Schmid et al., J. Allergy Clin. Immunol., 115: 399-404, 2005). In total, 85 clinically well-defined patients (75 from Vienna/10 from Milano) with typical case history, positive skin prick test and CAP/RAST tests for ragweed extract were included.
Peripheral blood mononuclear cells (PBMC) were isolated from heparinized blood of allergic patients by Ficoll density gradient centrifugation. To generate allergen-specific T cell lines (TCL) and T cell clones (TCC), 1.5×10^6 PBMC were stimulated with optimal doses of ragweed or mugwort extract (4 μg/ml) or rAmb a 1.3 (10 μg/ml) in 24-well flat-bottomed culture plates (Costar, USA). After 5 days human rIL-2 (10 U/ml, Boehringer, Mannheim, Germany) were added and cultures were continued for additional 7 days. Then, T cell blasts were isolated by density centrifugation. The majority of T cell blasts was further expanded with IL-2 and irradiated PBMC. A small number of T cell blasts were used to establish monoclonal T cell cultures by limiting dilution: 0.3 T cells/well were seeded into 96 well round bottom plates (Nunclone) in the presence of 2×10^5 irradiated (60 Gy) PBMC, 0.25% v/v PHA (Gibco, USA) and rIL-2 (4 U/well) in the medium mentioned above. After 14-21 days, growing microcultures were expanded at weekly intervals with irradiated PBMC and rIL-2. The specificity of TCC was assessed in proliferation assays using irradiated allogeneic or HLA-matched PBMC or irradiated EBV-transformed allogeneic B-cells and 5 μg/ml Amb a 1.3. After 48 hours, cellular uptake of tritiated (^3H)-thymidine was performed to measure proliferation in counts per minute (cpm). When the stimulation index (SI; ratio between cpm obtained in cultures containing TCC plus autologous APC plus antigen, and cpm obtained in cultures containing TCC and APC alone) was >10, responses were considered as positive. Allergen-specific TCC were expanded by alternating turns of stimulation with autologous irradiated APC and allergen or with allogeneic feeder cells and rIL-2.
Amb a 1-specific TCL and TCC were used to identify T cell epitopes of Amb a 1.3. T cell cultures were stimulated with a panel of 121 synthetic 12-mer peptides and one 13-mer representing the C-terminal peptide of Amb a 1.3 (Pepset, Biotrend, Germany). Peptides had been synthesized according to the Amb a 1.3 amino acid sequence and overlapped for 9 amino acid residues with the neighbouring peptides (Table 1). Peptides were used at a concentration of 5 μg/ml for stimulation and proliferation of T cell cultures was determined after 48 hrs by ^3H-thymidine-uptake. Because of the frequently observed high background caused by auto-reactivity in TCL, the mean of the cpm observed with the ten least stimulating peptides (none of the peptides was toxic) was used as negative control in calculations of SI. Throughout this manuscript, a peptide comprised one T cell epitope when the stimulation index was at least 3.0.
T cell epitope mapping of Amb a 1.3 was performed evaluating 48 TCL from different patients ([…]), which had been initiated with ragweed extract (containing the natural allergen) or rAmb a 1.3 (Table 2). TCL induced with either ragweed extract or rAmb a 1.3 from the same individual recognized similar T cell epitopes (Table 2; FIG. 7). […] Therefore, their data were combined for further analysis (Table 3). Typical for many inhalant allergens, multiple T cell activating regions were detected in Amb a 1.3. The number of peptides recognized by T cells from a single individual ranged from 2 to maximum 60 peptides with a mean of 17.8 peptides (median=16/for SI>3; resp. 0-36/11.9/12 for SI>5) (see Table 3). In total, 26 relevant (i.e. recognized by ≧10% of patients studied) T cell activating regions comprising 12-18 aa were identified. […]

Row | Sequence | No. positive patients SI > 3 | No. positive patients SI > 5 | % (positive patients SI > 3) | % (positive patients SI > 5) | reactivity with T cells isolated from allergic individuals | T cell activating region recognized by % of patients | T cell reactivity with samples from individuals suffering from ragweed pollen allergy
1 | AAAQNRPLWIIF (Amb a 1 fragment) [Peptide 29] | 4 | 3 | 8.3% | 6.3% | – | – | –
2 | AEPGEAAIKLTS (Amb a 1 fragment) [Peptide 117] | 4 | 3 | 8.3% | 6.3% | – | – | –
3 | AIKLTSSAGVLS (Amb a 1 fragment) [Peptide 119] | 16 | 10 | 33.3% | 20.8% | reactivity with T cells | – | –
4 | AIKLTSSAGVLSCRP (Amb a 1 fragment) [Peptide 119-120] | – | – | – | – | reactivity with T cells | – | –
5 | AKGTYGGKWGDV (Amb a 1 fragment) [Peptide 18] | 1 | 0 | 2.1% | 0.0% | – | – | –
6 | ALADCAQGFAKG (Amb a 1 fragment) [Peptide 15] | 4 | 2 | 8.3% | 4.2% | – | – | –
7 | AWNWRSDKDLLE (Amb a 1 fragment) [Peptide 105] | 4 | 3 | 8.3% | 6.3% | – | – | –
8 | CKFTQQSKAILL (Amb a 1 fragment) [Peptide 71] | 4 | 2 | 8.3% | 4.2% | – | – | –
9 | CSLSKSFDGLVD (Amb a 1 fragment) [Peptide 63] | 2 | 2 | 4.2% | 4.2% | – | – | –
10 | DCAQGFAKGTYG (Amb a 1 fragment) [Peptide 16] | 2 | 0 | 4.2% | 0.0% | – | – | –
11 | DGPPILRQASDG (Amb a 1 fragment) [Peptide 54] | 4 | 2 | 8.3% | 4.2% | – | – | –
12 | DKCWRGKADWEN (Amb a 1 fragment) [Peptide 10] | 2 | 2 | 4.2% | 4.2% | – | – | –
13 | DKDLLENGAIFV (Amb a 1 fragment) [Peptide 107] | 30 | 27 | 62.5% | 56.3% | reactivity with T cells | – | –
14 | DKDLLENGAIFVTSG (Amb a 1 fragment) [Peptide 107-108] | – | – | – | – | reactivity with T cells | recognized by 56.3% | –
15 | DKDLLENGAIFVTSGSDPVLTPVQ (Amb a 1 fragment) [Peptide 107-111] | – | – | – | – | reactivity with T cells | – | –
16 | DTHVQDKGMLAT (Amb a 1 fragment) [Peptide 76] | 4 | 1 | 8.3% | 2.1% | – | – | –

Row | Sequence | No. positive patients SI > 3 | No. positive patients SI > 5 | % (positive patients SI > 3) | % (positive patients SI > 5) | reactivity with T cells isolated from allergic individuals | T cell activating region recognized by % of patients | T cell reactivity with samples from individuals suffering from ragweed pollen allergy
17 | DTINVAGSSQIW (Amb a 1 fragment) [Peptide 58] | 3 | 1 | 6.3% | 2.1% | – | – | –
18 | DVANPKEGTLRF (Amb a 1 fragment) [Peptide 25] | 2 | 0 | 4.2% | 0.0% | – | – | –
19 | EAYNIIDKCWRG (Amb a 1 fragment) [Peptide 8] | 3 | 1 | 6.3% | 2.1% | – | – | –
20 | EGTLRFAAAQNR (Amb a 1 fragment) [Peptide 27] | 5 | 5 | 10.4% | 10.4% | reactivity with T cells | – | –
21 | EGTLRFAAAQNRPLW (Amb a 1 fragment) [Peptide 27-28] | – | – | – | – | reactivity with T cells | recognized by 22.9% | –
22 | EIINGGLTLMNV (Amb a 1 fragment) [Peptide 42] | 11 | 5 | 22.9% | 10.4% | reactivity with T cells | recognized by 10.4% | –
23 | EILPSVNETRSL (Amb a 1 fragment) [Peptide 3] | 1 | 0 | 2.1% | 0.0% | – | – | –
24 | ESMAWNWRSDKD (Amb a 1 fragment) [Peptide 104] | 2 | 1 | 4.2% | 2.1% | – | – | –
25 | FDGLVDVTLGST (Amb a 1 fragment) [Peptide 65] | 2 | 1 | 4.2% | 2.1% | – | – | –
26 | FGFFQVVNNNYD (Amb a 1 fragment) [Peptide 86] | 12 | 10 | 25.0% | 20.8% | reactivity with T cells | recognized by 20.6% | high T cell reactivity
27 | FLAPDDQIKKNV (Amb a 1 fragment) [Peptide 97] | 6 | 4 | 12.5% | 8.3% | reactivity with T cells | – | –
28 | FQVVNNNYDRWG (Amb a 1 fragment) [Peptide 87] | 5 | 2 | 10.4% | 4.2% | reactivity with T cells | – | –
29 | GAAESMAWNWRS (Amb a 1 fragment) [Peptide 103] | 2 | 1 | 4.2% | 2.1% | – | – | –
30 | GADDTHVQDKGM (Amb a 1 fragment) [Peptide 75] | 1 | 1 | 2.1% | 2.1% | – | – | –
31 | GDVYTVTSNLDD (Amb a 1 fragment) [Peptide 21] | 2 | 1 | 4.2% | 2.1% | – | – | –
32 | GEAAIKLTSSAG (Amb a 1 fragment) [Peptide 118] | 10 | 8 | 20.8% | 16.7% | reactivity with T cells | – | –
